Laboratory results taken from the supplement of paper PMC10307832.

Assays:
Test in all cases: relative viability (nuclei count vs DMSO), 5 days (fraction); higher = more cells survive
Dovitinib + Olaparib = compound: CN1CCN(c2ccc3nc(-c4c(N)c5c(F)cccc5[nH]c4=O)[nH]c3c2)CC1 [Dovitinib] + O=C(c1cc(Cc2n[nH]c(=O)c3ccccc23)ccc1F)N1CCN(C(=O)C2CC2)CC1 [Olaparib] (partner 8 µM)
How it was run: (§1)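 For relative viability, nuclei counts in treated wells were divided by those in vehicle wells. Lung cancer cell lines had been pin-tool dosed in 1536-well plates the day after seeding and cultured for 5 days, then fixed and stained in one step (final 0.05% Triton X-100, 1% formaldehyde, 1 ug/ml Hoechst) and imaged at 4×. Doses were one drug alone or a fixed anchor-drug dose plus five library-drug doses (not always all listed) in √10 steps, and values are duplicate-plate medians.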

Dovitinib + Bortezomib = compound: CN1CCN(c2ccc3nc(-c4c(N)c5c(F)cccc5[nH]c4=O)[nH]c3c2)CC1 [Dovitinib] + CC(C)C[C@H](NC(=O)[C@H](Cc1ccccc1)NC(=O)c1cnccn1)B(O)O [Bortezomib] (partner 0.002 µM)
How it was run: as §1

Dovitinib + Pemetrexed = compound: CN1CCN(c2ccc3nc(-c4c(N)c5c(F)cccc5[nH]c4=O)[nH]c3c2)CC1 [Dovitinib] + Nc1nc2[nH]cc(CCc3ccc(C(=O)N[C@@H](CCC(=O)O)C(=O)O)cc3)c2c(=O)[nH]1 [Pemetrexed] (partner 0.2 µM)
How it was run: as §1

Dovitinib + Alpelisib = compound: CN1CCN(c2ccc3nc(-c4c(N)c5c(F)cccc5[nH]c4=O)[nH]c3c2)CC1 [Dovitinib] + Cc1nc(NC(=O)N2CCC[C@H]2C(N)=O)sc1-c1ccnc(C(C)(C)C(F)(F)F)c1 [Alpelisib] (partner 2 µM)
How it was run: as §1

Row | Cell Line | relative viability (Dovitinib + Olaparib; first compound 0.02 µM) | relative viability (Dovitinib + Olaparib; first compound 0.06325 µM) | relative viability (Dovitinib + Olaparib; first compound 0.2 µM) | relative viability (Dovitinib + Olaparib; first compound 0.6325 µM) | relative viability (Dovitinib + Olaparib; first compound 2 µM) | relative viability (Dovitinib + Bortezomib; first compound 0.02 µM) | relative viability (Dovitinib + Bortezomib; first compound 0.06325 µM) | relative viability (Dovitinib + Bortezomib; first compound 0.2 µM) | relative viability (Dovitinib + Bortezomib; first compound 0.6325 µM) | relative viability (Dovitinib + Bortezomib; first compound 2 µM) | relative viability (Dovitinib + Pemetrexed; first compound 0.02 µM) | relative viability (Dovitinib + Pemetrexed; first compound 0.06325 µM) | relative viability (Dovitinib + Pemetrexed; first compound 0.2 µM) | relative viability (Dovitinib + Pemetrexed; first compound 0.6325 µM) | relative viability (Dovitinib + Pemetrexed; first compound 2 µM) | relative viability (Dovitinib + Alpelisib; first compound 0.02 µM) | relative viability (Dovitinib + Alpelisib; first compound 0.06325 µM) | relative viability (Dovitinib + Alpelisib; first compound 0.2 µM) | relative viability (Dovitinib + Alpelisib; first compound 0.6325 µM) | relative viability (Dovitinib + Alpelisib; first compound 2 µM)
1 | HCC-44 | 0.976 | 0.977 | 0.949 | 0.996 | 0.92 | 0.822 | 0.836 | 0.867 | 0.894 | 0.916 | 0.617 | 0.659 | 0.685 | 0.687 | 0.586 | 0.721 | 0.783 | 0.835 | 0.856 | 0.747
2 | HCC-78 | 0.887 | 0.665 | 1.05 | 0.777 | 0.888 | 0.636 | 0.486 | 0.531 | 0.567 | 0.355 | 0.914 | 0.934 | 0.931 | 0.889 | 0.865 | 0.422 |  | 0.384 | 0.364 | 0.316
3 | HCC-366 | 0.324 | 0.352 | 0.412 | 0.297 | 0.324 | 1.08 | 1.06 | 0.987 | 1.06 | 0.999 | 0.129 | 0.208 | 0.161 | 0.161 | 0.166 | 0.545 | 0.393 | 0.478 | 0.505 | 0.446
4 | HCC-827 | 0.626 | 0.697 | 0.646 | 0.68 | 0.678 | 1.08 | 1.07 | 1.04 | 1.09 | 1.05 | 0.259 | 0.119 | 0.245 | 0.264 | 0.25 | 0.931 | 0.926 | 0.918 | 0.987 | 1.03
5 | HOP-62 | 0.346 | 0.559 | 0.425 | 0.329 | 0.352 | 0.604 | 0.619 | 0.794 | 0.968 | 0.578 | 0.272 | 0.337 | 0.32 | 0.269 | 0.385 | 0.804 | 0.844 | 1.27 | 0.896 | 0.829
6 | IA-LM | 0.723 | 0.812 | 0.916 | 0.795 | 0.845 | 0.787 | 1.01 | 0.666 | 0.837 | 0.772 |  |  |  |  |  | 0.732 | 0.78 | 0.854 | 0.911 | 0.765
7 | LK-2 | 0.738 | 0.818 | 0.676 | 0.935 | 0.739 |  |  |  |  |  | 0.309 | 0.274 | 0.287 | 0.342 | 0.265 | 1.22 | 1.06 | 0.974 | 0.959 | 0.628
8 | NCI-H358 | 0.621 | 0.658 | 0.619 | 0.543 | 0.606 |  |  |  |  |  | 0.169 | 0.171 | 0.186 | 0.18 | 0.176 | 0.941 | 0.905 | 0.849 | 0.84 | 0.804
9 | NCI-H522 | 0.729 | 0.695 | 0.728 | 0.634 | 0.66 |  |  |  |  |  | 1.05 | 1.03 | 1.22 | 0.949 | 1.02 |  |  |  |  | 
10 | NCI-H727 | 0.584 | 0.72 | 0.719 | 0.679 | 0.674 | 0.937 | 0.733 | 0.92 | 0.845 | 1.27 |  |  |  |  |  | 0.673 | 0.642 | 0.476 | 0.48 | 0.47
11 | NCI-H1299 | 0.927 | 1.01 | 0.982 | 0.946 | 1.02 | 0.977 | 1.03 | 1.06 | 1.05 | 1.03 |  |  |  |  |  | 0.984 | 1.02 | 1.02 | 1.04 | 1.09
12 | NCI-H1395 | 0.533 | 0.431 | 0.478 | 0.505 | 0.479 |  |  |  |  |  | 0.91 | 0.807 | 0.933 | 0.911 | 1.02 | 1.07 | 0.988 | 1.11 | 1.09 | 1.12
13 | NCI-H1563 |  |  |  |  |  | 0.962 | 0.879 | 0.977 | 0.938 | 0.908 | 0.692 | 0.922 | 0.933 | 0.913 | 0.829 | 0.943 | 0.893 | 1.06 | 0.908 | 0.902
14 | NCI-H1648 | 0.506 | 0.815 | 0.932 | 0.667 | 0.77 |  |  |  |  |  | 0.521 | 0.729 | 0.628 | 0.804 | 0.631 |  |  |  |  | 
15 | NCI-H1650 | 0.595 | 0.703 | 0.823 | 0.804 | 0.733 | 0.209 | 0.206 | 0.201 | 0.189 | 0.203 | 0.404 | 0.347 | 0.395 | 0.339 | 0.354 |  |  |  |  | 
16 | NCI-H1703 | 0.399 | 0.502 | 0.325 | 0.329 | 0.24 | 0.47 | 0.335 | 0.18 | 0.328 | 0.291 |  |  |  |  |  | 0.291 | 0.418 | 0.346 | 0.264 | 0.276
17 | NCI-H1793 | 0.901 | 0.928 | 0.786 | 0.873 | 1.02 |  |  |  |  |  | 1.27 | 0.735 | 0.96 | 0.916 | 0.943 | 0.928 | 0.601 | 0.88 | 0.831 | 0.623
18 | NCI-H1944 | 0.416 | 0.422 | 0.447 | 0.387 | 0.426 |  |  |  |  |  | 0.583 | 0.649 | 0.677 | 0.739 | 0.597 | 0.822 | 0.846 | 0.809 | 0.777 | 0.858
19 | NCI-H2170 | 0.617 | 0.607 | 0.606 | 0.605 | 0.542 |  |  |  |  |  | 0.267 | 0.33 | 0.267 | 0.265 | 0.281 | 0.672 | 0.807 | 0.889 | 0.77 | 0.83
20 | NCI-H2342 | 0.486 | 0.415 | 0.439 | 0.486 | 0.427 |  |  |  |  |  | 0.787 | 0.74 | 0.74 | 0.835 | 0.777 |  |  |  |  | 
21 | SK-MES-1 | 0.682 | 0.749 | 0.74 | 0.773 | 0.829 |  |  |  |  |  | 0.941 | 0.958 | 0.972 | 0.966 | 1.03 | 0.852 | 0.89 | 0.907 | 0.936 | 0.971
